Laboratory results as given in the NIST ThermoML archive (doi:10.1021/acs.jced.8b00132).
Where “and” joins values, the source holds several entries; their conditions need not be identical. Equal entries are not always repeated. Numbers after ± are expanded uncertainties.

Settings: transient hot wire

O=C(C(F)(F)C(F)(F)F)C(F)(C(F)(F)F)C(F)(F)F [dodecafluoro-2-methylpentan-3-one]
thermal conductivity (331.38 K, 45565 kPa, Liquid): 0.06924 ± 0.0014 W/m/K
thermal conductivity (331.38 K, 45571 kPa, Liquid): 0.06916 ± 0.0014 W/m/K
thermal conductivity (331.39 K, 36560 kPa, Liquid): 0.06692 ± 0.0014 W/m/K
thermal conductivity (331.4 K, 36561 kPa, Liquid): 0.0672 ± 0.0014 W/m/K
thermal conductivity (331.51 K, 102 kPa, Gas): 0.01402 ± 0.00088 W/m/K
thermal conductivity (331.54 K, 107 kPa, Gas): 0.01383 ± 0.00086 W/m/K
thermal conductivity (331.55 K, 3950 kPa, Liquid): 0.05388 ± 0.0011 W/m/K
thermal conductivity (331.55 K, 3951 kPa, Liquid): 0.05379 ± 0.0011 W/m/K
thermal conductivity (331.56 K, 72 kPa, Gas): 0.01361 ± 0.00087 W/m/K
thermal conductivity (331.58 K, 74 kPa, Gas): 0.01363 ± 0.00087 W/m/K
thermal conductivity (331.64 K, 28068 kPa, Liquid): 0.06457 ± 0.0013 W/m/K
thermal conductivity (331.64 K, 28075 kPa, Liquid): 0.06383 ± 0.0013 W/m/K
thermal conductivity (331.67 K, 20446 kPa, Liquid): 0.06141 ± 0.0013 W/m/K
thermal conductivity (331.67 K, 20447 kPa, Liquid): 0.06118 ± 0.0013 W/m/K
thermal conductivity (331.7 K, 14109 kPa, Liquid): 0.0585 ± 0.0012 W/m/K
thermal conductivity (331.71 K, 14116 kPa, Liquid): 0.05838 ± 0.0012 W/m/K
thermal conductivity (331.75 K, 8577 kPa, Liquid): 0.05613 ± 0.0012 W/m/K
thermal conductivity (331.75 K, 69214 kPa, Liquid): 0.07577 ± 0.0016 W/m/K
thermal conductivity (331.76 K, 8578 kPa, Liquid): 0.0562 ± 0.0012 W/m/K
thermal conductivity (331.76 K, 69231 kPa, Liquid): 0.07536 ± 0.0015 W/m/K
thermal conductivity (331.77 K, 57729 kPa, Liquid): 0.0724 ± 0.0015 W/m/K
thermal conductivity (331.77 K, 57733 kPa, Liquid): 0.07259 ± 0.0015 W/m/K
thermal conductivity (331.79 K, 239 kPa, Liquid): 0.05138 ± 0.0011 W/m/K
thermal conductivity (331.79 K, 45573 kPa, Liquid): 0.06907 ± 0.0014 W/m/K
thermal conductivity (331.8 K, 242 kPa, Liquid): 0.05139 ± 0.0011 W/m/K
thermal conductivity (331.8 K, 45574 kPa, Liquid): 0.06925 ± 0.0014 W/m/K
thermal conductivity (331.81 K, 102 kPa, Gas): 0.01364 ± 0.00085 W/m/K
thermal conductivity (331.83 K, 106 kPa, Gas): 0.01386 ± 0.00086 W/m/K
thermal conductivity (331.83 K, 36555 kPa, Liquid): 0.06649 ± 0.0014 W/m/K
thermal conductivity (331.83 K, 36558 kPa, Liquid): 0.06686 ± 0.0014 W/m/K
thermal conductivity (331.84 K, 107 kPa, Liquid): 0.05166 ± 0.0011 W/m/K and 0.05159 ± 0.0011 W/m/K
thermal conductivity (331.86 K, 71 kPa, Gas): 0.01366 ± 0.00085 W/m/K
thermal conductivity (331.89 K, 74 kPa, Gas): 0.01368 ± 0.00085 W/m/K
thermal conductivity (332.07 K, 3947 kPa, Liquid): 0.05394 ± 0.0011 W/m/K
thermal conductivity (332.08 K, 3946 kPa, Liquid): 0.05395 ± 0.0011 W/m/K
thermal conductivity (332.12 K, 28065 kPa, Liquid): 0.06395 ± 0.0013 W/m/K
thermal conductivity (332.12 K, 28069 kPa, Liquid): 0.06418 ± 0.0013 W/m/K
thermal conductivity (332.14 K, 107 kPa, Gas): 0.01388 ± 0.00086 W/m/K
thermal conductivity (332.18 K, 20442 kPa, Liquid): 0.0612 ± 0.0013 W/m/K and 0.06122 ± 0.0013 W/m/K
thermal conductivity (332.19 K, 71 kPa, Gas): 0.0138 ± 0.00086 W/m/K
thermal conductivity (332.19 K, 69215 kPa, Liquid): 0.07588 ± 0.0016 W/m/K
thermal conductivity (332.19 K, 69218 kPa, Liquid): 0.07551 ± 0.0015 W/m/K
thermal conductivity (332.22 K, 57721 kPa, Liquid): 0.07263 ± 0.0015 W/m/K
thermal conductivity (332.22 K, 57724 kPa, Liquid): 0.07259 ± 0.0015 W/m/K
thermal conductivity (332.23 K, 74 kPa, Gas): 0.01373 ± 0.00085 W/m/K
thermal conductivity (332.23 K, 14110 kPa, Liquid): 0.05828 ± 0.0012 W/m/K
thermal conductivity (332.23 K, 14111 kPa, Liquid): 0.05807 ± 0.0012 W/m/K
thermal conductivity (332.27 K, 45566 kPa, Liquid): 0.06911 ± 0.0014 W/m/K
thermal conductivity (332.28 K, 45563 kPa, Liquid): 0.06904 ± 0.0014 W/m/K
thermal conductivity (332.3 K, 8573 kPa, Liquid): 0.0558 ± 0.0012 W/m/K
thermal conductivity (332.3 K, 8574 kPa, Liquid): 0.05582 ± 0.0012 W/m/K
thermal conductivity (332.32 K, 36553 kPa, Liquid): 0.06631 ± 0.0014 W/m/K
thermal conductivity (332.33 K, 36552 kPa, Liquid): 0.06642 ± 0.0014 W/m/K
thermal conductivity (332.35 K, 238 kPa, Liquid): 0.05149 ± 0.0011 W/m/K
thermal conductivity (332.35 K, 239 kPa, Liquid): 0.05131 ± 0.0011 W/m/K
thermal conductivity (332.38 K, 108 kPa, Liquid): 0.05165 ± 0.0011 W/m/K
thermal conductivity (332.39 K, 107 kPa, Liquid): 0.05161 ± 0.0011 W/m/K
thermal conductivity (332.47 K, 102 kPa, Gas): 0.01373 ± 0.00085 W/m/K
thermal conductivity (332.56 K, 71 kPa, Gas): 0.01389 ± 0.00086 W/m/K
thermal conductivity (332.59 K, 73 kPa, Gas): 0.01379 ± 0.00086 W/m/K
thermal conductivity (332.65 K, 28066 kPa, Liquid): 0.0639 ± 0.0013 W/m/K
thermal conductivity (332.66 K, 28069 kPa, Liquid): 0.06388 ± 0.0013 W/m/K
thermal conductivity (332.68 K, 3944 kPa, Liquid): 0.05341 ± 0.0011 W/m/K
thermal conductivity (332.68 K, 3949 kPa, Liquid): 0.05349 ± 0.0011 W/m/K
thermal conductivity (332.68 K, 69200 kPa, Liquid): 0.07562 ± 0.0015 W/m/K
thermal conductivity (332.69 K, 69200 kPa, Liquid): 0.07558 ± 0.0015 W/m/K
thermal conductivity (332.73 K, 20437 kPa, Liquid): 0.06118 ± 0.0013 W/m/K
thermal conductivity (332.73 K, 57710 kPa, Liquid): 0.07255 ± 0.0015 W/m/K
thermal conductivity (332.73 K, 57718 kPa, Liquid): 0.07251 ± 0.0015 W/m/K
thermal conductivity (332.74 K, 20439 kPa, Liquid): 0.06126 ± 0.0013 W/m/K
thermal conductivity (332.8 K, 45557 kPa, Liquid): 0.06917 ± 0.0014 W/m/K
thermal conductivity (332.81 K, 45558 kPa, Liquid): 0.06905 ± 0.0014 W/m/K
thermal conductivity (332.82 K, 14107 kPa, Liquid): 0.05846 ± 0.0012 W/m/K
thermal conductivity (332.83 K, 102 kPa, Gas): 0.01371 ± 0.00085 W/m/K
thermal conductivity (332.83 K, 14108 kPa, Liquid): 0.05829 ± 0.0012 W/m/K
thermal conductivity (332.85 K, 107 kPa, Gas): 0.01391 ± 0.00087 W/m/K
thermal conductivity (332.87 K, 36553 kPa, Liquid): 0.06645 ± 0.0014 W/m/K
thermal conductivity (332.87 K, 36556 kPa, Liquid): 0.06639 ± 0.0014 W/m/K
thermal conductivity (332.91 K, 8572 kPa, Liquid): 0.05573 ± 0.0011 W/m/K
thermal conductivity (332.91 K, 8573 kPa, Liquid): 0.05574 ± 0.0011 W/m/K
thermal conductivity (332.94 K, 70 kPa, Gas): 0.01377 ± 0.00085 W/m/K
thermal conductivity (332.97 K, 73 kPa, Gas): 0.01383 ± 0.00086 W/m/K
thermal conductivity (332.97 K, 230 kPa, Liquid): 0.05124 ± 0.0011 W/m/K
thermal conductivity (332.98 K, 237 kPa, Liquid): 0.05109 ± 0.0011 W/m/K
